Active and inactive are the calls of the source.
Legend:
[1] = molecular target: T1, Ubiquitin-conjugating enzyme E2 N (Homo sapiens, UniProt P61088); assay type: functional
T1 sequence (P61088 whole entry): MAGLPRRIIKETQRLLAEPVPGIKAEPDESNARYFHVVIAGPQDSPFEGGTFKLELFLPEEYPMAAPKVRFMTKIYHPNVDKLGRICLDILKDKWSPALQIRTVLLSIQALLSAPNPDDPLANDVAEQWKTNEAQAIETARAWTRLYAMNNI

[2] = molecular target: T2, Bcl-2-related protein A1 (Mus musculus, UniProt Q07440); assay type: functional;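 also: confirmatory dose–response counterscreen on Bfl-1, used to check hits from a UBC13 polyubiquitin inhibitor campaign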
T2 sequence (Q07440 whole entry): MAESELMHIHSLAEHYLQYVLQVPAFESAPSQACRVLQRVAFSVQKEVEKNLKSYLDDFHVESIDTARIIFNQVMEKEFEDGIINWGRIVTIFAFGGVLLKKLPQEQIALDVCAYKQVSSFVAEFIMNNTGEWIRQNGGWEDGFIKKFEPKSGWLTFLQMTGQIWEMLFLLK

[3] = molecular target: T1, Ubiquitin-conjugating enzyme E2 N; assay type: functional; remark: listed apart in the source
[4] = inhibitors of SNCA 5'UTR-driven reporter translation, confirmation, H4 neuroglioma cells, luminescence (AID 1988); assay type: functional, cell-based
[5] = inhibitors of firefly luciferase expression or activity, dose response, H4 neuroglioma cells, luminescence (AID 1990); assay type: functional, cell-based
[6] = molecular target: SUMO-activating enzyme (Homo sapiens, UniProt Q9UBT2); experiment: SUMOylation inhibitor hit validation, confirmation, SUMOylation inhibitor project, biochemical, AlphaScreen (AID 2018); assay type: functional
SUMO-activating enzyme, sequence (Q9UBE0 whole entry): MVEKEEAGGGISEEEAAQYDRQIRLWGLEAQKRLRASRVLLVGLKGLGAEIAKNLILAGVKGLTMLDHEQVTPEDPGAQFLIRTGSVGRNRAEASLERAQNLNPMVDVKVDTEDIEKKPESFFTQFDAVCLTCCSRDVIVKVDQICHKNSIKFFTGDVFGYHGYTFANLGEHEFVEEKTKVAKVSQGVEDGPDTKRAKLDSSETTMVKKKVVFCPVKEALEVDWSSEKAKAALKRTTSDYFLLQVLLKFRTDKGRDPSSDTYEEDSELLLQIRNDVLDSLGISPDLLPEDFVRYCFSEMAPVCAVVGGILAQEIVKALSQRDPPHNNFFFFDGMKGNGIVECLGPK
SUMO-activating enzyme, sequence (Q9UBT2 whole entry): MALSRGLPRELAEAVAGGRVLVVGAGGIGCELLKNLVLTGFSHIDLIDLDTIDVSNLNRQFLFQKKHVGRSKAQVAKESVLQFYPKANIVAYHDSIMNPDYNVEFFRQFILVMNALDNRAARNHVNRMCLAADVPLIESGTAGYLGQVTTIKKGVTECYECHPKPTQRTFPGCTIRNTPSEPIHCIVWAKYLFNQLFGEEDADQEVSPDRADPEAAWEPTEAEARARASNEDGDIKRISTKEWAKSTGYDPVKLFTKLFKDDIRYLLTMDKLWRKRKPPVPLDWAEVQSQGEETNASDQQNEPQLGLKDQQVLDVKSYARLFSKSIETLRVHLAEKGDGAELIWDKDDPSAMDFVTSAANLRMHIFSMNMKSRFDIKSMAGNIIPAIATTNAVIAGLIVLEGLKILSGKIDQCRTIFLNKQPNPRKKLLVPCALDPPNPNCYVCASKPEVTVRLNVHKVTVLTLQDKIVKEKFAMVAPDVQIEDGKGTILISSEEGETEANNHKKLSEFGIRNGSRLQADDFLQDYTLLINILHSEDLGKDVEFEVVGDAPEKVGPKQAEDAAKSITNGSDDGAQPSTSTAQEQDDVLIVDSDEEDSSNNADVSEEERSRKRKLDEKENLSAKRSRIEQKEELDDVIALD

[7] = tested on: Vero; experiment: host cell cytotoxicity of antiviral hits, dose response, cytotoxicity control for West Nile virus antiviral project, secondary assay (AID 1650); assay type: functional; details: Chlorocebus sabaeus
[8] = Luminescence Cell-Based Dose Response HTS to Identify Inhibitors of 5'UTR Stem-Loop Driven Prion Protein mRNA Translation in H4 Neuroglioblastoma Cells. [Related pubchem assays: 1827 (Project Summary), 1813 (Primary HTS)]; assay type: functional

| Structure (SMILES) | IC50 [1] | IC50 [2] | IC50 [3] | EC50 [4] | EC50 [5] | IC50 [6] | CC50 [7] | EC50 [8] |
| --- | --- | --- | --- | --- | --- | --- | --- | --- |
| CCOc1ccc(N(C(=O)c2snc(C(N)=O)c2N)C(CC)C(=O)NC2CCCC2)cc1 (stereo unspecified) | 10.1 µM (active) | > 20 µM (inactive) | 12.3 µM (active) |  |  |  |  |  |
| CCC(=O)NC(=S)NNC(=O)c1ccc(NC(=O)c2ccccc2)cc1 | 11.4 µM (active) | > 20 µM (inactive) | 3.81 µM (active) |  |  |  |  |  |
| COc1ccc(NC(=O)C(=O)N/N=C\c2ccc(CNC(=O)C(=O)Nc3ccc(C)c(C)c3)o2)c(OC)c1 |  |  |  | 5.4 µM (active) | 6.59 µM (active) | 30.4 µM (active) | 15.1 µM (active) | 9.34 µM (active) |
